Each structure is given as a SMILES string. Like-named read-outs stand apart in the source and are kept apart here.

Common to all, as to format: cell-based
Assay [1] relates to NB-1 (brain neuroblastoma cell). Nature of the assay: Cell viability assay (Promega CellTiter-Glo), inhibitory effect on NB-1. Conditions: Homo sapiens, 72 h, 3 days of culture, read-out: inhibitory effect on brain cell line NB-1 (IC50). The procedure: (§1) The inhibitory effect of the compounds prepared in the Examples of the present invention on various brain tumor cell lines was detected using cell viability assay reagent.
(§2) Cell viability was detected using the Promega CellTiter-Glo kit, cell viability was determined by directly measuring intracellular ATP content. In the experiment, the IC50 value of the compounds prepared in the Examples of the present invention on various brain tumor cell lines was detected.
(§3) Each tumor cell was cultured in relevant medium. After cell passage, the gradient diluted compounds prepared in the Examples of the present invention was added. After 3 days of culture, the relevant IC50 (50% inhibiting concentration) was measured. The name, source and culture conditions of each tumor cell line were as follows:
Cell line NB-1 (ATCC, No. HTB-131) was cultured in 10% fetal bovine serum-containing Leibovitz's L-15 medium (+P/S).

Assay [2] concerns 786-O (clear cell renal cell adenocarcinoma cell). Nature of the assay: Cell viability assay (Promega CellTiter-Glo), inhibitory effect on 786-O. Conditions: Homo sapiens, 786-0, 72 h, 3 days of culture. In outline: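 786-O cells grown in RPMI1640 with 10% FBS and P/S, then exposed to serially diluted compounds after passage for 3 days. Viability read as intracellular ATP by CellTiter-Glo luminescence; IC50 derived.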

Assay [3] deals with CFPAC-1 (human pancreatic cancer cell). Nature of the assay: Cell viability assay (Promega CellTiter-Glo), inhibitory effect on CFPAC-1. The settings on record: 72 h, 3 days of culture. In outline: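 CFPAC-1 human pancreatic cancer cells in IMDM with 10% FBS exposed to serially diluted compounds for 3 days. Viability measured as intracellular ATP by CellTiter-Glo luminescence; IC50 derived.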
(In general: In ATP-based viability assays light output follows the ATP content of the culture.)

Assay [4] relates to SW48 (human colon adenocarcinoma cell). Nature of the assay: Cell viability assay (Promega CellTiter-Glo), inhibitory effect on SW48. Conditions: 72 h, 3 days of culture. In outline: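 Cells grown in L-15 medium with 10% FBS and treated with serially diluted compounds for 3 days. Viability taken from intracellular ATP by CellTiter-Glo luminescence; IC50 derived.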
In assay [5] the test system is G-401 (human renal carcinoma Wilms cell). Nature of the assay: Cell viability assay (Promega CellTiter-Glo), inhibitory effect on G-401. The settings on record: 72 h, 3 days of culture. In outline: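 Cells grown in McCoy's 5a with 10% FBS were treated with gradient-diluted compounds after passage. Viability was read as intracellular ATP by CellTiter-Glo luminescence after 3 days of culture, and IC50 was determined from the dose series.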

The test system of assay [6] is Kelly (brain neuroblastoma cell). Nature of the assay: Cell viability assay (Promega CellTiter-Glo), inhibitory effect on Kelly. Conditions: Homo sapiens, 72 h, 3 days of culture, read-out: inhibitory effect on brain cell line Kelly (IC50). The procedure:
as §1, §2, §3
Cell line Kelly (ECACC, No. 92110411) was cultured in 10% fetal bovine serum and 2 mM glutamine-containing RPMI1640 medium.

Assay [7] deals with ov-NNMT NCI-H82 cell (NNMT protein-overexpressing NCI-H82). Nature of the assay: Cell viability assay (Promega CellTiter-Glo), inhibitory effect on ov-NNMT NCI-H82 cell. Conditions: Homo sapiens. The method in brief:
(§4)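 NCI-H82 lines: NNMT overexpressed via viral vector, DNMT1 knocked down by viral shRNA, control given empty vector; expression confirmed by Western blot. Compound effect on viability read by CellTiter-Glo.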

Assay [8] has as its system D341 Med (cerebellar medulloblastoma cell). Nature of the assay: Cell viability assay (Promega CellTiter-Glo), inhibitory effect on D341 Med. The settings on record: Homo sapiens, 72 h, 3 days of culture, read-out: inhibitory effect on brain cell line D341 Med (IC50). Here is the method: as §1, §2, §3
Cell line D341 Med (ATCC, No. HTB-187) was cultured in 20% fetal bovine serum-containing EMEM medium (+P/S).

Assay [9] deals with NCI-H82 (human small cell lung cancer cell). Nature of the assay: Cell viability assay (Promega CellTiter-Glo), inhibitory effect on NCI-H82. Conditions: 72 h, 3 days of culture. In outline:
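NCI-H82 cells grown in RPMI1640 with 10% FBS were exposed to serially diluted compound for 3 days. Viability was read as intracellular ATP by CellTiter-Glo luminescence, and the IC50 was taken as the concentration giving 50% inhibition.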

Assay [10] deals with MDA-MB-453 (breast cancer cell). Nature of the assay: Cell viability assay (Promega CellTiter-Glo), inhibitory effect on MDA-MB-453. Conditions: Homo sapiens, 72 h, 3 days of culture. The method in brief:
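Cells grown in Leibovitz's L-15 with 10% FBS were given serially diluted compound after passage and cultured 3 days. Viability was read as intracellular ATP by CellTiter-Glo luminescence, and IC50 was derived.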

Assay [11] concerns GB-1 (human brain glioblastoma cell). Nature of the assay: Cell viability assay (Promega CellTiter-Glo), inhibitory effect on GB-1. The settings on record: 72 h, 3 days of culture. In outline: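 GB-1 cells were grown in DMEM with 10% FBS and given serially diluted compound after passage. Viability was read after 3 days of culture as intracellular ATP by CellTiter-Glo luminescence, and IC50 was derived.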

In assay [12] the test system is SF126 (human glioblastoma multiforme cell). Nature of the assay: Cell viability assay (Promega CellTiter-Glo), inhibitory effect on SF126. The method in brief: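 SF126 human glioblastoma cells grown in EMEM with 10% FBS were exposed to gradient-diluted compound for 3 days after passage. Viability was read as intracellular ATP by CellTiter-Glo luminescence, and IC50 taken as 50% inhibiting concentration.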

Assay [13] has as its system sh-DNMT1 NCI-H82 cell (DNMT1 knocked down NCI-H82). Nature of the assay: Cell viability assay (Promega CellTiter-Glo), inhibitory effect on sh-DNMT1 NCI-H82 cell. Conditions: Homo sapiens, NCI-H82 with DNMT1 knocked down by shRNA. The method in brief:
as §4

In assay [14] the test system is Con-NCI-H82 cell (NCI-H82 transfected with empty virus vector). Nature of the assay: Cell viability assay (Promega CellTiter-Glo), inhibitory effect on Con-NCI-H82 cell. The settings on record: Homo sapiens; NCI-H82 transfected with empty virus vector (control); CellTiter-Glo; read-out: inhibitory effect on Con-NCI-H82 (IC50). In outline: as §4
Where [15] appears, read: Table 3, read-out: inhibitory effect on GB-1 (IC50).
[16] abbreviates: Table 4, read-out: inhibitory effect on brain cell line GB-1 (IC50).
The mark [17] stands for this setting: 72 h, SF-126, 3 days of culture, Table 3, read-out: inhibitory effect on SF-126 (IC50).
The mark [18] stands for this setting: SF-126, 72 h, SF126, 3 days of culture, Table 4, read-out: inhibitory effect on brain cell line SF126 (IC50).

In general, IC50 refers to the concentration at which inhibition is half-maximal. For `CCCCCCCc1c2[n+](cc3c(OC)c(OC)ccc13)CCc1cc3c(cc1-2)OCO3` [compound AB31760], the IC50 in assay [1] was found to be 90 nM; in assay [2] it was 1600 nM; in [3], 2710 nM; in assay [4], 210 nM; in [5] it was 150 nM; in [6], 230 nM. Besides, the IC50 in assay [7] amounted to 350 nM; in [8], 700 nM; in assay [9], 150 nM; in [10] it was 250 nM; in [11] (setting [15]), 3670 nM; in assay [11] (setting [16]) it was 3670 nM. Also, the IC50 in assay [12] (setting [17]) is 3890 nM; in assay [12] (setting [18]) it was 3890 nM; in assay [13], 710 nM; in assay [14], 150 nM.

Take `COc1ccc2c(CCC(C)C)c3[n+](cc2c1OC)CCc1cc2c(cc1-3)OCO2` [compound AB31765]: the IC50 was determined as 300 nM in assay [1]; 9090 nM in assay [2]; 21700 nM in assay [3]; 1160 nM in [4]; 1270 nM in [5]; 1290 nM in [6]. Moreover, the IC50 in assay [7] was 2880 nM; in [8], 1630 nM; in assay [9], 1340 nM; in assay [10] it was 1070 nM; in assay [11] (setting [15]), 14800 nM; in [11] (setting [16]) it was 14800 nM. Besides, the IC50 in [12] (setting [17]) was determined as 9800 nM; in assay [12] (setting [18]), 9800 nM; in assay [13], 4050 nM; in [14] it was 1340 nM.

Consider `CCCCCCc1c2c(OC)c(OC)ccc2cc2[n+]1CCc1cc3c(cc1-2)OCO3` [compound AB31767], for which the IC50 in assay [1] was determined as 120 nM; in assay [2], 2100 nM; in assay [3], 4310 nM; in assay [4], 370 nM; in [5], 180 nM; in [6] it was 300 nM. In addition, the IC50 in [7] worked out at 650 nM; in [8] it was 570 nM; in assay [9], 260 nM; in [10] it was 270 nM; in assay [11] (setting [15]), 3610 nM; in [11] (setting [16]), 3610 nM. Also, the IC50 in assay [12] (setting [17]) was 3700 nM; in assay [12] (setting [18]), 3700 nM; in assay [13] it was 980 nM; in assay [14] it was 260 nM.

Consider `COc1ccc2cc3[n+](cc2c1OC(=O)CC12CC4CC(CC(C4)C1)C2)CCc1cc2c(cc1-3)OCO2` [compound AB31771], for which the IC50 in assay [1] came to 1040 nM; in [2], 20800 nM; in assay [3], 17100 nM; in assay [4], 1370 nM; in assay [5], 2040 nM; in assay [6], 2210 nM. In addition, the IC50 in assay [7] stood at 3940 nM; in assay [8], 1660 nM; in assay [9] it was 1870 nM; in assay [10], 350 nM; in assay [11] (setting [15]), 11200 nM; in assay [11] (setting [16]) it was 11200 nM. Further, the IC50 in assay [12] (setting [17]) stood at 15700 nM; in assay [12] (setting [18]), 15700 nM; in assay [13] it was 5810 nM; in assay [14], 1870 nM.

Consider `COc1ccc2c(CCc3ccccc3)c3[n+](cc2c1OC)CCc1cc2c(cc1-3)OCO2` [compound AB31780], for which the half-maximal inhibitory concentration (IC50) in assay [1] was found to be 230 nM; in [2], 8050 nM; in [3], 17900 nM; in assay [4], 790 nM; in [5] it was 880 nM; in assay [6], 1160 nM. Moreover, the IC50 in assay [7] is 1520 nM; in assay [8], 1880 nM; in [9] it was 660 nM; in [10], 900 nM; in assay [11] (setting [15]) it was 12600 nM; in assay [11] (setting [16]) it was 12600 nM. Moreover, the IC50 in [12] (setting [17]) came out at 9750 nM; in assay [12] (setting [18]) it was 9750 nM; in [13], 1980 nM; in assay [14], 660 nM.

In the case of `COc1ccc2c(CCCc3ccccc3)c3[n+](cc2c1OC)CCc1cc2c(cc1-3)OCO2` [compound AB31781], the IC50 in assay [1] was 140 nM; in [2], 5340 nM; in [3], 11300 nM; in assay [4], 400 nM; in assay [5], 370 nM; in assay [6], 730 nM. The half-maximal inhibitory concentration (IC50) is 1160 nM in assay [7]; 820 nM in assay [8]; 330 nM in [9]; 760 nM in assay [10]; 8600 nM in [11] (setting [15]); 8600 nM in assay [11] (setting [16]). Moreover, the IC50 is 7480 nM in assay [12] (setting [17]), 7480 nM in [12] (setting [18]), 1420 nM in [13] and 330 nM in assay [14].

Turning to `COc1ccc2cc3[n+](cc2c1OCCCCCCBr)CCc1cc2c(cc1-3)OCO2` [compound AB31787], the IC50 was 80 nM in assay [1]; 4090 nM in [2]; 6630 nM in assay [3]; 480 nM in [4]; 490 nM in [5]; 690 nM in assay [6]. The IC50 in assay [7] was 880 nM; in assay [8] it was 330 nM; in assay [9], 340 nM; in [10] it was 280 nM; in assay [11] (setting [15]), 4230 nM; in [11] (setting [16]), 4230 nM. For the same compound, the IC50 in assay [12] (setting [17]) was found to be 4290 nM; in assay [12] (setting [18]), 4290 nM; in assay [13], 1310 nM; in [14], 340 nM.

On to `COc1ccc2c(Cc3ccc(OC(F)(F)F)cc3)c3[n+](cc2c1OC)CCc1cc2c(cc1-3)OCO2` [compound AB31788], for which the IC50 in assay [1] was 310 nM; in [2] it was 10800 nM; in assay [3], 16800 nM; in assay [4] it was 690 nM; in assay [5] it was 630 nM; in assay [6], 1300 nM. Moreover, the IC50 in assay [7] came out at 2420 nM; in assay [8] it was 1880 nM; in assay [9], 710 nM; in [10], 1030 nM; in assay [11] (setting [15]) it was 16500 nM; in [11] (setting [16]) it was 16500 nM. The half-maximal inhibitory concentration (IC50) in assay [12] (setting [17]) was determined as 10900 nM; in assay [12] (setting [18]), 10900 nM; in assay [13] it was 2950 nM; in assay [14], 710 nM.

For the origin of these results see US20250195502A1, “APPLICATION OF TETRACYCLIC COMPOUND IN TREATMENT OF TUMORS” (SHANGHAI SHIJIANG BIOTECHNOLOGY CO., LTD, priority 2022, published 2025).
